This passage reports LC retention time results from the RepoRT retention time repository (doi:10.1016/j.jchromb.2020.122105).

What all share (settings): stereoisomer not certain
The nature of data set [1]: RP, Waters CORTECS T3, 100 × 2.1 mm, 2.7 µm, 0.3 mL/min, estimated dead time 0.73 min; A: water + 0.1% formic acid, pH 3; B: methanol + 0.1% formic acid, pH 3; gradient (min/%B) 0/0 1/0 6/5 30/100 35/100 35.1/0 40/0.
A short description of data set [2]: RP, Waters ACQUITY UPLC BEH C18, 100 × 2.1 mm, 1.7 µm, 0.1 mL/min, estimated dead time 2.2 min; A: water + 0.1% formic acid, pH 3; B: methanol + 0.1% formic acid, pH 3; gradient (min/%B) 0/5 5/5 25/100 30/100 30.1/5 35/5.
Data set [3] can be described thus: RP, Waters CORTECS T3, 100 × 2.1 mm, 2.7 µm, 0.3 mL/min, estimated dead time 0.73 min; A: water + 0.1% formic acid, pH 3; B: methanol + 0.1% formic acid, pH 3; gradient (min/%B) 0/5 5/5 25/95 25.1/100 35/100 35.1/5 45/5.
Data set [4] in a line: RP, Waters ACQUITY UPLC BEH C18, 100 × 2.1 mm, 1.7 µm, 0.1 mL/min, estimated dead time 2.2 min; A: water + 0.1% formic acid, pH 3; B: methanol + 0.1% formic acid, pH 3; gradient (min/%B) 0/5 5/5 25/95 25.1/100 35/100 35.1/5 45/5.
Data set [5] can be described thus: RP, Waters CORTECS T3, 100 × 2.1 mm, 2.7 µm, 0.3 mL/min, estimated dead time 0.73 min; A: water + 0.1% formic acid, pH 3; B: methanol + 0.1% formic acid, pH 3; gradient (min/%B) 0/5 5/5 25/100 30/100 30.1/5 35/5.
Data set [6] is described as follows: RP, Waters ACQUITY UPLC BEH C18, 100 × 2.1 mm, 1.7 µm, 0.1 mL/min, estimated dead time 2.2 min; A: water + 0.1% formic acid, pH 3; B: methanol + 0.1% formic acid, pH 3; gradient (min/%B) 0/5 5/5 25/95 25.1/100 35/100 35.1/5 45/5. The source holds these as a separate data set.
Data set [7] is described as follows: RP, Waters CORTECS T3, 100 × 2.1 mm, 2.7 µm, 0.1 mL/min, estimated dead time 2.2 min; A: water + 0.1% formic acid, pH 3; B: methanol + 0.1% formic acid, pH 3; gradient (min/%B) 0/5 5/5 25/95 25.1/100 35/100 35.1/5 45/5.
The nature of data set [8]: RP, Waters CORTECS T3, 100 × 2.1 mm, 2.7 µm, 0.15 mL/min, estimated dead time 1.5 min; A: water + 0.1% formic acid, pH 3; B: methanol + 0.1% formic acid, pH 3; gradient (min/%B) 0/0 1/0 6/5 30/100 35/100 35.1/0 40/0.
Data set [9] is described as follows: RP, Waters CORTECS T3, 100 × 2.1 mm, 2.7 µm, 0.1 mL/min, estimated dead time 2.2 min; A: water + 0.1% formic acid, pH 3; B: methanol + 0.1% formic acid, pH 3; gradient (min/%B) 0/0 1/0 6/5 30/100 35/100 35.1/0 40/0.
Data set [10] is described as follows: RP, Waters CORTECS T3, 100 × 2.1 mm, 2.7 µm, 0.2 mL/min, estimated dead time 1.1 min; A: water + 0.1% formic acid, pH 3; B: methanol + 0.1% formic acid, pH 3; gradient (min/%B) 0/0 1/0 6/5 30/100 35/100 35.1/0 40/0.
The nature of data set [11]: RP, Waters CORTECS T3, 100 × 2.1 mm, 2.7 µm, 0.25 mL/min, estimated dead time 0.88 min; A: water + 0.1% formic acid, pH 3; B: methanol + 0.1% formic acid, pH 3; gradient (min/%B) 0/0 1/0 6/5 30/100 35/100 35.1/0 40/0.
A short description of data set [12]: RP, Waters CORTECS T3, 100 × 2.1 mm, 2.7 µm, 0.3 mL/min, estimated dead time 0.73 min; A: water + 0.1% formic acid, pH 3; B: methanol + 0.1% formic acid, pH 3; gradient (min/%B) 0/0 5/0 25/100 30/100 30.1/0 35/0.
Data set [13] is described as follows: RP, Waters ACQUITY UPLC BEH C18, 100 × 2.1 mm, 1.7 µm, 0.2 mL/min, estimated dead time 1.1 min; A: water + 0.1% formic acid, pH 3; B: methanol + 0.1% formic acid, pH 3; gradient (min/%B) 0/5 5/5 25/100 30/100 30.1/5 35/5.
Data set [14] can be described thus: RP, Waters CORTECS T3, 100 × 2.1 mm, 2.7 µm, 0.2 mL/min, estimated dead time 1.1 min; A: water + 0.045% formic acid + 0.11% ammonium hydroxide, pH 7; B: methanol; gradient (min/%B) 0/5 5/5 25/95 25.1/100 35/100 35.1/5 45/5.
A short description of data set [15]: RP, Waters CORTECS T3, 100 × 2.1 mm, 2.7 µm, 0.3 mL/min, estimated dead time 0.73 min; A: water + 0.1% formic acid, pH 3; B: methanol + 0.1% formic acid, pH 3; gradient (min/%B) 0/0 5/0 25/100 30/100 30.1/0 35/0. This is another data set of the same source.
Data set [16] in a line: RP, Thermo Scientific Hypercarb, 150 × 2.1 mm, 5 µm, 0.1 mL/min, estimated dead time 3.3 min; A: water + 0.1% formic acid, pH 3; B: methanol + 0.1% formic acid, pH 3; gradient (min/%B) 0/5 5/5 20/100 35/100 35.1/5 45/5.
Data set [17] is described as follows: RP, Waters CORTECS T3, 100 × 2.1 mm, 2.7 µm, 0.2 mL/min, estimated dead time 1.1 min; A: water + 0.1% formic acid, pH 3; B: methanol + 0.1% formic acid, pH 3; gradient (min/%B) 0/0 1/0 6/5 30/100 35/100 35.1/0 40/0. This is another data set of the same source.
The nature of data set [18]: HILIC, Merck SeQuant ZIC-HILIC, 150 × 2.1 mm, 5 µm, 0.75 mL/min, estimated dead time 0.44 min; A: water + 0.1% acetic acid + 10 mM ammonium acetate, pH 4; B: 5% water + 95% acetonitrile + 0.1% acetic acid + 10 mM ammonium acetate, pH 4; gradient (min/%B) 0/95 5/95 20/57 25/57 30/95 40/95.
The nature of data set [19]: HILIC, Merck SeQuant ZIC-HILIC, 150 × 2.1 mm, 5 µm, 0.75 mL/min, estimated dead time 0.44 min; A: water + 10 mM ammonium formate, pH 6; B: 5% water + 95% acetonitrile + 10 mM ammonium formate, pH 6; gradient (min/%B) 0/95 5/95 20/57 25/57 30/95 40/95.
Data set [20] can be described thus: RP, Waters CORTECS T3, 100 × 2.1 mm, 2.7 µm, 0.3 mL/min, estimated dead time 0.73 min; A: water + 0.1% formic acid, pH 3; B: methanol + 0.1% formic acid, pH 3; gradient (min/%B) 0/0 1/0 6/5 30/100 35/100 35.1/0 40/0. This is another data set of the same source.
Data set [21] is described as follows: RP, Waters ACQUITY UPLC BEH C18, 100 × 2.1 mm, 1.7 µm, 0.2 mL/min, estimated dead time 1.1 min; A: water + 0.025% formic acid + 20 mM ammonium acetate + 0.055% ammonium hydroxide, pH 7; B: methanol; gradient (min/%B) 0/5 5/5 25/100 30/100 30.1/5 35/5.
Data set [22] is described as follows: RP, Waters ACQUITY UPLC BEH C18, 100 × 2.1 mm, 1.7 µm, 0.1 mL/min, estimated dead time 2.2 min; A: water + 0.1% formic acid, pH 3; B: methanol + 0.1% formic acid, pH 3; gradient (min/%B) 0/5 5/5 25/95 25.1/100 35/100 35.1/5 45/5. The source holds these as a separate data set.
A short description of data set [23]: RP, Waters CORTECS T3, 100 × 2.1 mm, 2.7 µm, 0.25 mL/min, estimated dead time 0.88 min; A: water + 0.1% formic acid, pH 3; B: methanol + 0.1% formic acid, pH 3; gradient (min/%B) 0/5 5/5 25/95 25.1/100 35/100 35.1/5 45/5.
Data set [24] is described as follows: RP, Waters ACQUITY UPLC BEH C18, 100 × 2.1 mm, 1.7 µm, 0.2 mL/min, estimated dead time 1.1 min; A: water + 0.025% formic acid + 20 mM ammonium acetate + 0.055% ammonium hydroxide, pH 7; B: methanol; gradient (min/%B) 0/5 5/5 25/100 30/100 30.1/5 35/5. The source holds these as a separate data set.
Data set [25] can be described thus: RP, Waters CORTECS T3, 100 × 2.1 mm, 2.7 µm, 0.15 mL/min, estimated dead time 1.5 min; A: water + 0.1% formic acid, pH 3; B: methanol + 0.1% formic acid, pH 3; gradient (min/%B) 0/5 5/5 25/95 25.1/100 35/100 35.1/5 45/5.
Data set [26] is described as follows: HILIC, Waters XBridge BEH Amide, 100 × 2.1 mm, 2.5 µm, 0.5 mL/min, estimated dead time 0.44 min; A: water + 0.1% acetic acid + 10 mM ammonium acetate, pH 4; B: 5% water + 95% acetonitrile + 0.1% acetic acid + 10 mM ammonium acetate, pH 4; gradient (min/%B) 0/95 5/95 20/57 25/57 30/95 40/95.
A short description of data set [27]: RP, Waters CORTECS T3, 100 × 2.1 mm, 2.7 µm, 0.2 mL/min, estimated dead time 1.1 min; A: water + 0.1% formic acid, pH 3; B: methanol + 0.1% formic acid, pH 3; gradient (min/%B) 0/5 5/5 25/95 25.1/100 35/100 35.1/5 45/5.

As to `NC(Cc1ccc(Oc2cc(I)c(O)c(I)c2)c(I)c1)C(=O)O` (stereo not drawn) [3,3',5'-TRIIODOTHYRONINE], the LC retention time was 20.2 min in data set [1]; 21.6 min in data set [2]; 17.9 min in data set [3]; 22.2 min in data set [4]; 17.3 min in [5]; 22.2 min in data set [6]. The LC retention time is 21.8 min in [7]; 22.5 min in data set [8]; 19.1 min in [9]; 21.4 min in data set [10]; 20.8 min in data set [11]; 17.9 min in [12].
Take `O=C(O)CCCCC1SCC2NC(=O)NC21` (stereo not drawn) [BIOTIN]: the LC retention time is 12.1 min in data set [13]; 1.35 min in [14]; 11.7 min in data set [15]; 30.7 min in data set [16]; 13.7 min in data set [17]; 15.2 min in [2]. Also, the LC retention time in data set [18] was 8.19 min; in [19], 7.34 min; in [20] it was 12.3 min; in [21], 6.2 min; in [5], 10.7 min; in [6], 15.5 min. Further, the LC retention time was 15.5 min in [22]; 11.4 min in data set [23]; 15.3 min in data set [7]; 3.98 min in data set [24]; 14.9 min in [8]; 12.1 min in [9]. In addition, the figures for the LC retention time in [12] and in data set [25] were 11.7 min and 13.3 min, respectively.
On to `Nc1nc2nc[nH]c2c(=O)[nH]1` [GUANINE], for which the LC retention time is 2.74 min in data set [2]; 2.38 min in data set [3]; 2.66 min in data set [4]; 2.45 min in data set [5]; 2.66 min in data set [6]; 2.71 min in data set [7]. The LC retention time is 9.27 min in data set [8], 3.48 min in [9], 6.86 min in [10] and 5.85 min in data set [11].
With `CCC(NC(=O)CCC(N)C(=O)O)C(=O)NCC(=O)O` (stereo not drawn) [OPHTHALMIC ACID], the LC retention time in data set [13] was 1.42 min; in data set [1], 0.92 min; in data set [15], 0.93 min; in data set [16], 18.5 min; in data set [17], 1.38 min; in data set [2] it was 2.74 min. Also, the LC retention time in data set [3] was 0.9 min; in data set [18], 13.8 min; in data set [20], 0.96 min; in data set [5], 0.93 min; in data set [26], 14.5 min; in [6] it was 2.66 min. The LC retention time in data set [27] was 2.74 min; in data set [22], 2.7 min; in data set [23], 1.08 min; in data set [24], 1.36 min; in data set [8] it was 1.87 min; in data set [10] it was 1.38 min. Also, the LC retention time is 1.13 min in [11], 0.93 min in data set [12] and 1.78 min in data set [25].
